Legend:
NOX4 = target: T1, NOX4 (Homo sapiens, UniProt Q9NPH5); assay: NOX4 HEK293 overexpression cell-based assay (Amplex Red H2O2); details: HEK293 cells stably overexpressing NOX4, DMSO = 0, GKT137831 = 100; for inhibition at 0.1 µM: HEK293, 100 nM; for inhibition at 1 µM: HEK293, 1000 nM
T1 construct: expressed in transfected cells
T1 sequence (Q9NPH5 1-578): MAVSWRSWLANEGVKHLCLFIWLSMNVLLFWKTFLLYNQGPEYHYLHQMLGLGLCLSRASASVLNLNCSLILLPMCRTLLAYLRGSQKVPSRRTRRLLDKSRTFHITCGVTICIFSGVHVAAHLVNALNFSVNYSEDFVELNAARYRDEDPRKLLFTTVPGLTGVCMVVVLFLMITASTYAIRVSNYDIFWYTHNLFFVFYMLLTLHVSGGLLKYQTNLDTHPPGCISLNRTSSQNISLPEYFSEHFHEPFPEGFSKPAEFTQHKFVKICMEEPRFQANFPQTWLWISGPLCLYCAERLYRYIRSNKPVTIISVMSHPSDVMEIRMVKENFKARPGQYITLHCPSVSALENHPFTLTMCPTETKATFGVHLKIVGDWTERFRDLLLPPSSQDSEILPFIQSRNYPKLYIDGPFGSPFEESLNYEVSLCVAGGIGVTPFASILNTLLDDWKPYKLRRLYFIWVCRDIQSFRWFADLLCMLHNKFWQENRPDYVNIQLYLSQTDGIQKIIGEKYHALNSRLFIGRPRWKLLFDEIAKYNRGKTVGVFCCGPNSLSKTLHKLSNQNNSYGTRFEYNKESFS
T1 sequence (P13498 2-195 partner limits assumed): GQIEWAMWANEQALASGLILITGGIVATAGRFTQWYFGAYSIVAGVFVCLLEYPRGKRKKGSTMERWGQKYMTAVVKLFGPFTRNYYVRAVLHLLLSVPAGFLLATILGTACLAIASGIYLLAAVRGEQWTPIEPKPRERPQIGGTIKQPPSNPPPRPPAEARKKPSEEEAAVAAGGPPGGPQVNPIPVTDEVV
Outline: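 HEK293 cells stably overexpressing NOX4 (3×10^4) preincubated 30 min at 37° C with compound in KRPG buffer, then mixed with Amplex Red reagent solution (50 μM Amplex Red, 0.1 units/mL HRP) for 90 min at 37° C in the dark. Supernatant fluorescence read at 530/590 nm; DMSO set to 0 and GKT137831 to 100.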

NOX2 = target: T2, NOX2 (Homo sapiens, UniProt P04839); assay: NOX2 HL60 cell-based assay (PMA oxidative burst, L012 chemiluminescence); details: DMSO-differentiated HL-60 cells, PMA-stimulated; for inhibition at 0.1 µM: HL-60, 100 nM; for inhibition at 1 µM: HL-60, 1000 nM
T2 construct: HL-60 cells, rich in NOX2 expression; endogenous in cells; host or cells: DMSO-differentiated HL-60
T2 sequence (P04839 2-570 limits assumed): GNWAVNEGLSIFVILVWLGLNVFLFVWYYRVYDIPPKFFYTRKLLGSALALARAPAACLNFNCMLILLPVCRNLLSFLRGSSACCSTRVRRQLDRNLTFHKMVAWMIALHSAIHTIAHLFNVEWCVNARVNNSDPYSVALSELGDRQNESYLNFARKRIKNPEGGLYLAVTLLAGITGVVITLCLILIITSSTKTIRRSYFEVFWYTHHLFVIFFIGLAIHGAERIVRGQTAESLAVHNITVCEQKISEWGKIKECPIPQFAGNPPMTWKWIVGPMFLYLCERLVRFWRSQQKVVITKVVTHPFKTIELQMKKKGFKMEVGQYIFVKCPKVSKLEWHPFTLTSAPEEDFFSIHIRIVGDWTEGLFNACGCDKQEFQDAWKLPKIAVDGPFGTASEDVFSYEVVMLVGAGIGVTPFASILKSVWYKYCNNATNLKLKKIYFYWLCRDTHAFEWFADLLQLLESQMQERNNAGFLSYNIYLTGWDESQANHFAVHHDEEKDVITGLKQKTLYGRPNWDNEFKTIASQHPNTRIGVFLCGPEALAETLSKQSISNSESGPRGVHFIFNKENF
T2 sequence (P13498 2-195 partner limits assumed): T1 sequence (P13498 2-195 partner limits assumed)
Outline: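 DMSO-differentiated HL-60 cells (2.5×10^5/well) with 100 μM L012 preincubated with compound 30-60 min at 37 °C in the dark. Oxidative burst triggered by 10 ng/mL PMA; superoxide chemiluminescence read every 5 min for 60 min.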

NOX1 = target: T3, NOX1 (Homo sapiens, UniProt Q9Y5S8); assay: NOX1 HT29 cell-based assay (luminol/HRP luminescence); details: HT29 cells, DMSO = 0%, GKT137831 = 100%; for inhibition at 0.1 µM / inhibition at 1 µM: HT-29
T3 construct: endogenous in cells; host or cells: HT29
T3 sequence (Q9Y5S8 1-564): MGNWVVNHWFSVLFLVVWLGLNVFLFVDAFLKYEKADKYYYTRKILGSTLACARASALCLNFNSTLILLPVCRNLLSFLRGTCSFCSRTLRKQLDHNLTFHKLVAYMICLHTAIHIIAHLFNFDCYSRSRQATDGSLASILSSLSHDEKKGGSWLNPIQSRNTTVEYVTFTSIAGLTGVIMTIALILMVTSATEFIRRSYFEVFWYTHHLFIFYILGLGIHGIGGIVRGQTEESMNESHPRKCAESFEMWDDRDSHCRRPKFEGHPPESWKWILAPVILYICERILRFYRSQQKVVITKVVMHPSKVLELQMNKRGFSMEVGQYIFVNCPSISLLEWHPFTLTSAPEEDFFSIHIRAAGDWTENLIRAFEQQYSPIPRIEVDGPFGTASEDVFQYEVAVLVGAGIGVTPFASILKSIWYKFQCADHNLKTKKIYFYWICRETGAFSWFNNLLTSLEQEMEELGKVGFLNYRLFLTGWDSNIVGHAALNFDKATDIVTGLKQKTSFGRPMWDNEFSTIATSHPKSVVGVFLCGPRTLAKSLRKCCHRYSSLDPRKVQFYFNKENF
T3 sequence (P13498 2-195 partner limits assumed): T1 sequence (P13498 2-195 partner limits assumed)
Outline: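 HT29 cells (1-2×10^5 per well) pretreated 30-60 min at 37 °C with compound at 100 nM and 1000 nM final, in duplicate, 0.1% DMSO. ROS read as luminol (100 μM)/HRP (0.4 U) luminescence. Activity normalised to DMSO (0%) and GKT137831 (100%).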

| inhibition at 0.1 µM (NOX2) | inhibition at 0.1 µM (NOX4) | inhibition at 1 µM (NOX4) | inhibition at 1 µM (NOX2) | inhibition at 0.1 µM (NOX1; 100 nM) | inhibition at 1 µM (NOX1; 1000 nM) | Structure (SMILES) | % Inhibition NOX4 (NOX4; 100 nM) | % Inhibition NOX4 (NOX4; 1000 nM) | % Inhibition NOX2 (NOX2; 1000 nM) | % Inhibition NOX1 (NOX1; 100 nM) | % Inhibition NOX1 (NOX1; 1000 nM) | % Inhibition NOX2 (NOX2; 100 nM) | % Inhibition NOX4 (NOX4; 1000 nM, 1 µM) | % Inhibition NOX2 (NOX2; 100 nM, 0.1 µM) | % Inhibition NOX2 (NOX2; 1000 nM, 1 µM) |
| --- | --- | --- | --- | --- | --- | --- | --- | --- | --- | --- | --- | --- | --- | --- | --- |
| ≤ 19% | – | – | – | – | – | COc1cc2[nH]c(-c3ccccc3OC)c(O)c(=O)c2cc1OC [Compound 5] | C (the percent of inhibition of NOX by the compounds ranges from 2000 to 49%) | A (the percent of inhibition of NOX by the compounds is larger than or equals to 80%) | A (the percent of inhibition of NOX by the compounds is larger than or equals to 80%) | A (the percent of inhibition of NOX by the compounds is larger than or equals to 80%) | A (the percent of inhibition of NOX by the compounds is larger than or equals to 80%) | – | – | – | – |
| ≤ 19% | ≤ 19% | ≥ 80% | 50 to 79% | 50 to 79% | ≥ 80% | COc1cccc(-c2[nH]c3cc(OC)c(OC)cc3c(=O)c2O)c1 [Compound 4] | – | – | – | – | – | – | – | – | – |
| – | – | ≥ 80% | ≥ 80% | ≥ 80% | ≥ 80% | COc1ccc(-c2[nH]c3cc(OC)c(OC)cc3c(=O)c2O)c(OC)c1 [Compound 15] | C (the percent of inhibition of NOX by the compounds ranges from 2000 to 49%) | – | – | – | – | C (the percent of inhibition of NOX by the compounds ranges from 2000 to 49%) | – | – | – |
| ≤ 19% | – | ≥ 80% | 50 to 79% | ≥ 80% | ≥ 80% | COc1ccc(-c2[nH]c3cc(OC)c(OC)cc3c(=O)c2O)cc1 [Compound 2, 3-hydroxy-6,7-dimethoxy-2-(4-methoxyphenyl) quinolin-4(1H)-one 2,2,2-trifluoroacetate] | C (the percent of inhibition of NOX by the compounds ranges from 2000 to 49%) | – | – | – | – | – | – | – | – |
| – | ≤ 19% | 50 to 79% | ≥ 80% | – | ≥ 80% | Br.O=c1c(O)c(-c2ccc(O)cc2)[nH]c2cc(O)c(O)cc12 [Compound 3, 3,6,7-trihydroxy-2-(4-hydroxyphenyl) quinolin-4(1H)-one hydrobromide] | – | – | – | C (the percent of inhibition of NOX by the compounds ranges from 2000 to 49%) | – | C (the percent of inhibition of NOX by the compounds ranges from 2000 to 49%) | – | – | – |
| ≤ 19% | 50 to 79% | ≥ 80% | 50 to 79% | ≥ 80% | ≥ 80% | COc1cc2[nH]c(-c3cccs3)c(O)c(=O)c2cc1OC [Compound 7] | – | – | – | – | – | – | – | – | – |
| – | ≤ 19% | – | ≥ 80% | ≥ 80% | ≥ 80% | COc1cc2[nH]c(-c3ccccc3OC)c(O)c(=O)c2cc1OC.Cl [Compound 51] | – | B (the percent of inhibition of NOX by the compounds ranges from 50% o to 79% o) | – | – | – | C (the percent of inhibition of NOX by the compounds ranges from 2000 to 49%) | – | – | – |
| ≤ 19% | ≤ 19% | – | ≤ 19% | ≤ 19% | ≤ 19% | COc1cc2[nH]c(-c3ccccc3OC)c(N)c(=O)c2cc1OC [Compound 38] | – | C (the percent of inhibition of NOX by the compounds ranges from 2000 to 49%) | – | – | – | – | – | – | – |
| – | – | – | – | – | – | COc1cc2[nH]c(-c3ccccc3OC(F)(F)F)c(O)c(=O)c2cc1OC [Compound 48] | C (the percent of inhibition of NOX by the compounds ranges from 2000 to 49%) | – | – | A (the percent of inhibition of NOX by the compounds is larger than or equals to 80%) | A (the percent of inhibition of NOX by the compounds is larger than or equals to 80%) | – | A (the percent of inhibition of NOX by the compounds is larger than or equals to 80%) | C (the percent of inhibition of NOX by the compounds ranges from 2000 to 49%) | B (the percent of inhibition of NOX by the compounds ranges from 50% o to 79% o) |
| ≤ 19% | – | ≥ 80% | ≥ 80% | ≥ 80% | ≥ 80% | COc1cc(Br)c(-c2[nH]c3cc(OC)c(OC)cc3c(=O)c2O)c(OC)c1 [Compound 27] | C (the percent of inhibition of NOX by the compounds ranges from 2000 to 49%) | – | – | – | – | – | – | – | – |
| ≤ 19% | ≤ 19% | ≤ 19% | ≤ 19% | ≤ 19% | ≤ 19% | COc1cc2c(cc1OC)C(=O)NCC(c1ccccc1Cl)=N2 [Compound 35, 2-(2-chlorophenyl)-7,8-dimethoxy-3,4-dihydro-5H-benzo[e][1,4] diazepin-5-one] | – | – | – | – | – | – | – | – | – |
| – | 50 to 79% | 50 to 79% | – | ≥ 80% | ≥ 80% | COc1cc2[nH]c(-c3ccccc3C(F)(F)F)c(O)c(=O)c2cc1OC [Compound 17] | – | – | – | – | – | – | – | C (the percent of inhibition of NOX by the compounds ranges from 2000 to 49%) | B (the percent of inhibition of NOX by the compounds ranges from 50% o to 79% o) |
| – | 50 to 79% | 50 to 79% | ≥ 80% | ≥ 80% | ≥ 80% | COc1cc2[nH]c(-c3ccccc3C)c(O)c(=O)c2cc1OC [Compound 16] | – | – | – | – | – | C (the percent of inhibition of NOX by the compounds ranges from 2000 to 49%) | – | – | – |

Source: patent publication US11661400B2, “NADPH oxidase inhibitors, pharmaceutical composition comprising the same, and application thereof” (TAIWANJ PHARMACEUTICALS CO., LTD., priority 2018, dated 2023)
